Laboratory results taken from patent publication US20240336660A1 (priority 2021, published 2024).
*: point of attachment. Decanoyl = CCCCCCCCCC(=O)*; CH2Cl = ClC*

Columns and labels:
[1] = test system: doxycycline-induced Htet1/SW1 cells; type: cell-based, human
[2] = test system: Htet1/SD614G cells; type: cell-based, human; settings: for effect on trafficking of Spike to lysosomes: 20 hours, 50 μM dynasore, 20 μM pitstop2, 1 μM nocodazole, 43 nM bafilomycin

Compound | effect on trafficking of Spike to lysosomes [2] | further results
Decanoyl-RVKR-CH2Cl |  | effect on Spike cell surface expression and furin-mediated processing [1]: reduced Spike's cell surface expression and furin-mediated processing
bafilomycin | redirected Spike into the Golgi and plasma membranes, preventing its accumulation in lysosomes | 
O=C1NC(=NS(=O)(=O)c2cccc3ccccc23)S/C1=C\c1ccc(Br)cc1 [pitstop2] | Neither had a noticeable impact on the trafficking of Spike to lysosomes | 
vacuolin-1 |  | Spike localization after vacuolin-1 treatment ([2]; vacuolin-1 10 μg/ml for three hours): Spike localization to lysosome membranes was also apparent
O=C(N/N=C/c1ccc(O)c(O)c1)c1cc2ccccc2cc1O [dynasore] | Neither had a noticeable impact on the trafficking of Spike to lysosomes | 
COC(=O)Nc1nc2ccc(C(=O)c3cccs3)cc2[nH]1 [nocodazole] | had no effect | 
